“Also recorded” adds a separate entry of the source.
How the values were obtained:
[1] = PO pharmacokinetic study, oral exposure (Example B3); format: in vivo; settings: for AUC at 24 h: blood, po, 10 mg/kg gavage; for oral absorption, systemic exposure: in words
Description: The blood concentration of the compound was then determined at 0 (pre-dosing), 5 min, 15 min, 30 min, 1 hr, 2 hr, 4 hr, 8 hr, 24 hr time points by LC-MS/MS analysis (See Tables 1 and 2, vide supra).

[2] = system: cultured mammalian cells, the NIH-3T3 cells, C2C12 cells, and other mammalian cell lines; assay: Mitochondrial membrane potential (MMP) assay, TMRE (or DilC1(5)) staining, related to OCR induction; format: cell-based; settings: in words; TMRE and DilC1(5) staining
Description: Mitochondrial membrane potential assay was performed using the standard TMRE (tetramethylrhodamine ethyl ester) staining method with cultured mammalian cells, the NIH-3T3 cells, C2C12 cells, and other mammalian cell lines. Cells were seeded in 6-well plates and cultured in DMEM medium supplemented with 10% fetal bovine serum and 2 mM glutamine. Cells were allowed to grow to the logarithmic growth phase prior to experiments. The cells were treated with each individual compound at various concentrations for two hours, followed by staining with TMRE at a final concentration of 100 nM for 15 minutes. The cells were then washed once with PBS, and examined under fluorescence microscopy. Cells treated with various concentrations of niclosamide ethanolamine were used as a positive control.
In some examples, mitochondrial membrane potential was measured with DilC1(5) staining. Briefly, DilC1(5) was added to the cells to 50 nM final concentration and the cells were incubated at 37° C., 5% CO2, for 15 to 30 minutes. Cells were washed once by adding 2 mL of warm phosphate-buffered saline (PBS). Mitochondrial staining was determined by fluorescence microscopy with 633 nm excitation using standard filters for far-red emission.
Using the ratio between C10% TMRE (the concentration at which 10% MMP remains, i.e. 90% MMP is lost) and Cmin-OCR (the concentration at which minimal OCR induction is observed), we categorized the MMP-retaining uncouplers into two groups.

C57Bl6 mice = assay: Determination of acute toxicity; settings: in words
Description: Acute toxicity tests were performed on C57Bl6 mice, male, 6 weeks old, n=6. […] The tests were performed under fed condition, by oral gavage of 100-400 μL compound suspension according to the body weight to desired dosages (mg/kg). The mice were supplied with drinking water all through the testing time. […] MED was determined in diabetic and steatosis mouse models (Table 9).
Acute toxicity tests were performed on C57Bl6 mice, male, 6 weeks old, n=6 for each dose. […] The tests were performed under fed condition, by oral gavage of 100-400 μL compound suspension according to the body weight to desired dosages (mg/kg). The mice were supplied with drinking water all through the testing time. Mouse behaviors were monitored every 15-30 minutes.

[3] = Short-term (10-day) escalating toxicology study in CD-1 mice; format: in vivo, mouse; settings: mouse, in vivo; oral gavage once daily, 10 days, male CD-1 mice; read-out: NOAEL (no-observable-adverse-effect-level)
Description: (§1) Clinical signs, body weights, food consumptions, rectal temperature, hematology, serum chemistry, plasma exposure, necropsies, tissue histopathology, were examined.
(§2) The compound was administered as a homogeneous suspension in 0.5% CMC+1% Tween80 in water in a volume of 10 mL/kg for oral administration. There were two arms in the study: 5 mice in the toxicology group and 5 mice in the toxicokinetic (TK) satellite group. Clinical signs were recorded twice daily. Body weight and food consumption were recorded once daily. Rectal temperature was recorded once every two days for a total of 5 times throughout the study. Necropsies were conducted at the termination of the study. Hematology, serum chemistry, plasma exposure, and tissue distribution were evaluated post 10th dosing in the TK satellite animals. Histopathology was examined in selected organs/tissues. Based on the outcomes of the toxicology parameters, NOAEL (no-observable-adverse-effect-level) and MTD (maximal tolerable dose) were determined.

CD-1 mice = assay: as above; format: in vivo, mouse; settings: in words
Description: as §1, §2

[4] = system: LX-2 cells (human hepatic stellate cells); assay: Inhibition of TGFβ-induced hepatic stellate cell differentiation into myofibroblast-like cells; format: cell-based; settings: TGFβ 10 ng/ml; for minimal effective concentration: Homo sapiens, LX-2, hepatic stellate cell differentiation to myofibroblast-like cells, 24 hours, read-out: Minimal inhibitory concentration; for inhibition of TGFβ-induced hepatic stellate cell differentiation: in words
Description: Liver fibrosis is one hallmark of NASH. […] This process could be modeled in vitro using the hepatic stellate differentiation experiment. The human hepatic stellate LX-2 cells were cultured within DMEM (Dulbecco's Modified Eagle Media, pH 7.4) supplied with 2% fetal bovine serum, 4.5 g/l glucose and 2 mM glutamine to 100 percent confluence. […] Cellular morphology was then examined under a microscope. As shown in FIG. 16 to FIG. 17, hepatic stellate cells could be induced by TGF-beta to differentiate into myofibroblast-like cells.

C2C12 cells = assay: Mitochondrial uncoupling activity by oxygen consumption rate (OCR) assay, Seahorse, in presence of oligomycin; format: cell-based, mouse; settings: for minimal effective concentration: Mus musculus, C2C12, in the presence of oligomycin 2.5 μM, read-out: COCR-min: minimal concentration increasing OCR in the presence of oligomycin; for effect on oxygen consumption rate (OCR): in words
Method in brief: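 Mouse C2C12 myoblasts grown in 10% FBS medium had OCR measured on Seahorse XF96/XF24 sequentially: basal, after 2.5 μM oligomycin (final), then after compound at varying concentrations. Rotenone/antimycin A confirmed mitochondrial origin. COCR-min is the minimal compound concentration inducing OCR in the presence of oligomycin.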

[5] = system: HFD-induced diabetic mouse model and db/db mouse model; assay: Efficacy in HFD-induced diabetic and db/db mouse models; format: in vivo; settings: for reducing blood glucose, blood insulin, and glycated HbA1c: 5 mg/kg once daily PO, db/db and HFD mice; for minimal effective dose: Mus musculus, both HFD and db/db models, oral daily gavage, read-out: Efficacious dosage to reduce blood glucose in mouse models, oral daily gavage
Description: For HFD induced diabetic mouse model, C57Bl6 mice (male, n=6) were induced to obese and diabetic conditions by feeding high-fat diet (HFD, 60% fat calories, Research Diet, Inc. New Brunswick, NJ) for 3-4 months. […] During the 3-week period, the mice continued feeding HFD. […] The blood glucose levels were measured after an overnight fast, plasma insulin levels were tested after 5-6 hours fast, and the glycated HbA1c levels were determined in whole blood samples.
Experiments were similarly performed with other compounds, in either high-fat diet induced diabetes and fatty liver models, or in db/db mouse model, or in both, by daily oral gavage administration with low dosages.

SMILES | AUC at 24 h [1] [ng·h/mL] | oral absorption, systemic exposure [1] | effect on mitochondrial membrane potential (MMP) [2] | acute toxicity profile over DNP (C57Bl6 mice) | NOAEL at 240 h [3] [mg/kg/day] | short-term safety profile over DNP (CD-1 mice) | minimal effective concentration [4] [µM] | inhibition of TGFβ-induced hepatic stellate cell differentiation [4] | inhibition of TGFβ-induced hepatic stellate cell differentiation ([4]; listed as Compounds 25) | minimal effective concentration (C2C12 cells) [µM] | effect on oxygen consumption rate (OCR) (C2C12 cells) | reducing blood glucose, blood insulin, and glycated HbA1c [5] | minimal effective dose [5] [mg/kg] | inhibition of TGFβ-induced hepatic stellate cell differentiation ([4]; listed as Compound64)
COCCN(CCOC)Cc1cc(Cl)cc(C(=O)Nc2nc3ccc(C(F)(F)F)cc3s2)c1O [Compound 25, 3-((bis(2-methoxyethyl)amino)methyl)-5-chloro-2-hydroxy-N-(6-(trifluoromethyl)benzo[d]thiazol-2-yl)benzamide] | 10000 to 30000 | excellent | does not cause observable MMP reduction; also recorded: does not appear to reduce MMP over a wide concentration range; also recorded: without reducing MMP | drastically improved acute toxicity profiles over DNP | 50 | drastically improved short-term safety profiles | 7.5 | effectively inhibit the differentiation process; also recorded: prevents TGFβ-induced differentiation of LX-2 cells | able to directly inhibit hepatic stellate cell (HSC) activation in vitro | < 5 | very robust OCR induction at 3.0, 6.0, and 9.0 μM; also recorded: effectively uncouples mitochondria (induces OCR | highly efficacious | 2.5 | –
COCCOCc1cc(C(F)(F)F)cc2sc(NC(=O)c3cc(Cl)cc(CN4C[C@@H](C)O[C@@H](C)C4)c3O)nc12 [Compound 64, 5-chloro-3-((cis-2,6-dimethylmorpholino)methyl)-2-hydroxy-N-(4-((2-methoxyethoxy)methyl)-6-(trifluoromethyl)benzo[d]thiazol-2-yl)benzamide] | 10000 to 30000 | excellent | minor loss of MMP; also recorded: without significantly decreasing MMP over a wide concentration range; also recorded: without drastically dissipating mitochondrial membrane potential | drastically improved acute toxicity profiles over DNP | 40 | drastically improved short-term safety profiles | 1 | effectively inhibit the differentiation process; also recorded: able to directly inhibit hepatic stellate cell (HSC) activation in vitro | – | < 5 | increases OCR | highly efficacious | 1 to 2.5 | prevents TGFβ-induced differentiation of LX-2 cells

Reference: patent US20260306502A1, “MITOCHONDRIAL UNCOUPLERS FOR TREATMENT OF METABOLIC DISEASES AND CANCER” (Mito Biopharma, LLC, priority 2022, published 2026)
